Results on 14 substances are retold here after patent US20240318102A1, “IMPROVED ENZYME-CONTAINING ADDITIVE AND DETERGENT LIQUOR FORMULATIONS” (priority 2021, published 2024).

The target in one test is T1, lipase enzyme (Thermomyces lanuginosus, UniProt O59952, N255R/T253R).
T1 construct: purchased Novozymes LIPEX 100 L
T1 sequence (O59952 23-291 T253R/N255R): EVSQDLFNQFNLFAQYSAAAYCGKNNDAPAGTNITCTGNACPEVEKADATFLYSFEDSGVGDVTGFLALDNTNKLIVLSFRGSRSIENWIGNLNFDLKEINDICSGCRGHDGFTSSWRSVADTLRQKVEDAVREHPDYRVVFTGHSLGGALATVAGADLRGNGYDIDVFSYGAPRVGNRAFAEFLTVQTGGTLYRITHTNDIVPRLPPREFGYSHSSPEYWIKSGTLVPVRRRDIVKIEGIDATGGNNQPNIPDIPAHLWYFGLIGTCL
Description: Washing test: total hydrolysis of rapeseed oil on a polyester swatch by lipase-containing washing liquor, free oleic acid quantified by HPLC. Format: biochemical. The following applies: about 100 ppm by weight surfactant; lipase concentrate about 0.2 g/l; pH about 9.6; about 50° C.; water hardness 2 fH. Here is the method:
The total hydrolysis of rapeseed oil in a wash process was tested with washing liquors that were always comprising the same concentration of a lipase enzyme concentrate. A blank test was performed without any added surfactant. This blank test served as the reference with which could be compared the other results obtained with the same washing liquor samples into which one of a number of different non-ionic surfactants were added.
In the experiments, the lipase concentrate was always present in a concentration of about 0.2 gram of the concentrate per litre of total liquor.
The washing tests were performed at a temperature of about 50° C. The water in the formulations was demineralised water obtained by reverse osmosis (RO).
Different washing liquors were prepared containing about 100 ppm by weight of a selected surfactant, to be compared with a blank liquor containing only the lipase enzyme concentrate and no surfactants.
For each liquor was tested the appearance of free oleic acid generated from the hydrolysis of a standard amount of rapeseed oil with which the liquor was brought in contact. Monitored by High Performance Liquid Chromatography (HPLC) was the quantitative release of free oleic acid (C18:1 fatty acid) in the washing liquor and/or present on the textile, as explained as part of the protocols below. Because oleic acid is the main fatty acid in the triglycerides of rapeseed oil, the generation of this acid as free fatty acid it is an excellent quantitative marker for the hydrolysis of rapeseed oil, in this context thus also for the activity of the lipase enzyme.
A series of tests were performed using water having a hardness of 2 fH. […] For each surfactant choice 2 duplicate samples were tested, except for Sample J (3 duplicates) and Sample K (only 1 sample tested). […] Also shown for each bar with a surfactant is an error bar showing the difference between the lowest and the highest of the duplicates.
The washing tests consisted of contacting at 50° C. a washing liquor containing the selected surfactant together with 0.2 grams per litre of the lipase enzyme concentrate and having a pH of 9.6 with a polyester swatch type W30-A (PES W30-A textile swatch obtained from the company Center For Testmaterials BV (NL)) that has been pre-treated with an amount of rapeseed oil such that the textile swatch contained about 1.5 grams of rapeseed oil on a total weight of slightly over 8 grams of pre-treated swatch.
The pre-treatment consisting of distributing a generous amount of rapeseed oil over the swatch by means of a paint roller. After applying the rapeseed oil onto the swatch, the impregnated swatch was left to dry for 48 hours between two layers of textile for assuring saturation and for absorbing the excess, after which the swatch was weighed on an analytical balance. The difference with the weight of the swatch before applying the rapeseed oil provides the amount of rapeseed oil that was present on the swatch.
In a 600 ml beaker is introduced 500 grams of the stock solution that was prepared in step 2, and this is brought up to a temperature of […] under stirring by means of a mixer submerged close to the bottom of the beaker at about 200 rpm. To this stock solution is then added 100 microliter (“μl”) of the concentrate of the lipase enzyme. Into this warm solution is then introduced the textile (i.e. the pre-treated PES swatch) to be tested, and the time counting of 10 minutes is started. Where a surfactant should be included, 50 milligram thereof is added into the beaker prior to introducing the lipase enzyme and of the textile.
After the 10 minutes contacting time provided in part 1, about 30 grams of the wash water (or wash liquor) is introduced into the 250 ml beaker containing the buffer solution and the formic acid. The formic acid serves to inactivate the lipase enzyme, so that the reaction is stopped. The total weight of the beaker content is noted and should be ±35 grams.
The dried textile is first weighed. […]
Consider 5EO-C13-C15 [M], for which the “effect of the surfactant on lipase activity in the washing liquor (in words, FIG. 1)” value (shortened to “effect of the surfactant”) is given as “relatively benign”.
On the same count and under the same terms, to 5EO-isoC13 belongs “not better than the conventional LES surfactant”; to 7EO-C13-15 [N], “much larger depressing effect”.
Regarding 7EO-isoC13 [F], the “effect of the surfactant” value is listed as “not better than the conventional LES surfactant”.
Consider 9EO-isoC13 [G], for which the “effect of the surfactant” value is “not better than the conventional LES surfactant”.
On to 10EO-isoC13 [H], for which the “effect of the surfactant” value is recorded as “not better than the conventional LES surfactant”.
As to C8-C10 APG-DP of 1.7 [Sample K], the “effect of the surfactant” value is “much lower depressing effect”.
Still for that read-out and setting: for “C8-C10 alkyl polyglucoside (APG) with an average degree of polymerisation (DP) of 1.5” the value was “much lower depressing effect”.
The same measure, in the same setting: for C8-C16 APG-DP of 1.5 [Sample J] the value was “much lower depressing effect”.
Same read-out and setting: to “C9-C11 fatty alcohol alkoxylated with an average ethoxylation degree of about 6 and an average propoxylation degree of about 4 [Sample O]” belongs “worse than the LES reference”; to C12-C14 amine oxide [P], “significant boost”.
Regarding “a mixture of linear C13-C15 alcohol that has been ethoxylated to an average degree of about 3”, the “effect of the surfactant” value is on record as “relatively benign”.
Consider “isotridecyl alcohol ethoxylated to an average degree of ethoxylation of about 3”, for which the “effect of the surfactant” value was “not better than the conventional LES surfactant”.

The test is the same for the next values; noted with them: about 100 ppm by weight surfactant; lipase concentrate about 0.2 g/l; pH about 9.6; about 50° C.; water hardness 2 fH; 10 minute washing test.
As to “Linear Alkyl Benzene Sulphonate [Sample B]”, the “relative lipase activity relative to the blank liquor (A) set at 100%” value was determined as 12%.

The target of a further test is T1, lipase enzyme. The description is as above. The class given is biochemical. The following applies: Example 5, surfactant concentration series.
5EO-isoC13: the “surfactant concentration at which the suppressing activity already becomes noticeable” value worked out at 10 ppm by weight and the “surfactant concentration until which the suppressing effect further grows (about the same up to 250 ppm by weight)” value is “about 100 ppm by weight”.
